How the values were obtained:
[1] = biological target: T1, Serine/threonine-protein kinase ATR (Homo sapiens, UniProt Q13535); test: Inhibition of ATR in human U2OS cells harboring ER-LBD fused TopBPI activation domain (978 to 1286 residues) assessed as reduction in 4-OHT-mediated nuclear translocation of TopBPI fragment by measuring gammaH2AX level after 24 hrs by Alexa Fluor 488 staining based fluorescence assay; format: cell-based
[2] = biological target: T1, Serine/threonine-protein kinase ATR; test: Inhibition of ATR in human HT29 cells assessed as reduction in Chk1 phosphorylation at Ser345 residues after 4 hrs by Alexa Fluor 488 staining based fluorescence assay; format: cell-based
ATR/ATRIP = ATR/ATRIP (Homo sapiens, UniProt Q13535); test: Inhibition of recombinant human full length ATR/ATRIP expressed in mammalian expression system using c-Myc-tagged p53 as substrate incubated for 15 mins followed by substrate addition measured after 25 to 35 mins by TR-FRET assay
Sequence of ATR/ATRIP (Q13535 whole entry): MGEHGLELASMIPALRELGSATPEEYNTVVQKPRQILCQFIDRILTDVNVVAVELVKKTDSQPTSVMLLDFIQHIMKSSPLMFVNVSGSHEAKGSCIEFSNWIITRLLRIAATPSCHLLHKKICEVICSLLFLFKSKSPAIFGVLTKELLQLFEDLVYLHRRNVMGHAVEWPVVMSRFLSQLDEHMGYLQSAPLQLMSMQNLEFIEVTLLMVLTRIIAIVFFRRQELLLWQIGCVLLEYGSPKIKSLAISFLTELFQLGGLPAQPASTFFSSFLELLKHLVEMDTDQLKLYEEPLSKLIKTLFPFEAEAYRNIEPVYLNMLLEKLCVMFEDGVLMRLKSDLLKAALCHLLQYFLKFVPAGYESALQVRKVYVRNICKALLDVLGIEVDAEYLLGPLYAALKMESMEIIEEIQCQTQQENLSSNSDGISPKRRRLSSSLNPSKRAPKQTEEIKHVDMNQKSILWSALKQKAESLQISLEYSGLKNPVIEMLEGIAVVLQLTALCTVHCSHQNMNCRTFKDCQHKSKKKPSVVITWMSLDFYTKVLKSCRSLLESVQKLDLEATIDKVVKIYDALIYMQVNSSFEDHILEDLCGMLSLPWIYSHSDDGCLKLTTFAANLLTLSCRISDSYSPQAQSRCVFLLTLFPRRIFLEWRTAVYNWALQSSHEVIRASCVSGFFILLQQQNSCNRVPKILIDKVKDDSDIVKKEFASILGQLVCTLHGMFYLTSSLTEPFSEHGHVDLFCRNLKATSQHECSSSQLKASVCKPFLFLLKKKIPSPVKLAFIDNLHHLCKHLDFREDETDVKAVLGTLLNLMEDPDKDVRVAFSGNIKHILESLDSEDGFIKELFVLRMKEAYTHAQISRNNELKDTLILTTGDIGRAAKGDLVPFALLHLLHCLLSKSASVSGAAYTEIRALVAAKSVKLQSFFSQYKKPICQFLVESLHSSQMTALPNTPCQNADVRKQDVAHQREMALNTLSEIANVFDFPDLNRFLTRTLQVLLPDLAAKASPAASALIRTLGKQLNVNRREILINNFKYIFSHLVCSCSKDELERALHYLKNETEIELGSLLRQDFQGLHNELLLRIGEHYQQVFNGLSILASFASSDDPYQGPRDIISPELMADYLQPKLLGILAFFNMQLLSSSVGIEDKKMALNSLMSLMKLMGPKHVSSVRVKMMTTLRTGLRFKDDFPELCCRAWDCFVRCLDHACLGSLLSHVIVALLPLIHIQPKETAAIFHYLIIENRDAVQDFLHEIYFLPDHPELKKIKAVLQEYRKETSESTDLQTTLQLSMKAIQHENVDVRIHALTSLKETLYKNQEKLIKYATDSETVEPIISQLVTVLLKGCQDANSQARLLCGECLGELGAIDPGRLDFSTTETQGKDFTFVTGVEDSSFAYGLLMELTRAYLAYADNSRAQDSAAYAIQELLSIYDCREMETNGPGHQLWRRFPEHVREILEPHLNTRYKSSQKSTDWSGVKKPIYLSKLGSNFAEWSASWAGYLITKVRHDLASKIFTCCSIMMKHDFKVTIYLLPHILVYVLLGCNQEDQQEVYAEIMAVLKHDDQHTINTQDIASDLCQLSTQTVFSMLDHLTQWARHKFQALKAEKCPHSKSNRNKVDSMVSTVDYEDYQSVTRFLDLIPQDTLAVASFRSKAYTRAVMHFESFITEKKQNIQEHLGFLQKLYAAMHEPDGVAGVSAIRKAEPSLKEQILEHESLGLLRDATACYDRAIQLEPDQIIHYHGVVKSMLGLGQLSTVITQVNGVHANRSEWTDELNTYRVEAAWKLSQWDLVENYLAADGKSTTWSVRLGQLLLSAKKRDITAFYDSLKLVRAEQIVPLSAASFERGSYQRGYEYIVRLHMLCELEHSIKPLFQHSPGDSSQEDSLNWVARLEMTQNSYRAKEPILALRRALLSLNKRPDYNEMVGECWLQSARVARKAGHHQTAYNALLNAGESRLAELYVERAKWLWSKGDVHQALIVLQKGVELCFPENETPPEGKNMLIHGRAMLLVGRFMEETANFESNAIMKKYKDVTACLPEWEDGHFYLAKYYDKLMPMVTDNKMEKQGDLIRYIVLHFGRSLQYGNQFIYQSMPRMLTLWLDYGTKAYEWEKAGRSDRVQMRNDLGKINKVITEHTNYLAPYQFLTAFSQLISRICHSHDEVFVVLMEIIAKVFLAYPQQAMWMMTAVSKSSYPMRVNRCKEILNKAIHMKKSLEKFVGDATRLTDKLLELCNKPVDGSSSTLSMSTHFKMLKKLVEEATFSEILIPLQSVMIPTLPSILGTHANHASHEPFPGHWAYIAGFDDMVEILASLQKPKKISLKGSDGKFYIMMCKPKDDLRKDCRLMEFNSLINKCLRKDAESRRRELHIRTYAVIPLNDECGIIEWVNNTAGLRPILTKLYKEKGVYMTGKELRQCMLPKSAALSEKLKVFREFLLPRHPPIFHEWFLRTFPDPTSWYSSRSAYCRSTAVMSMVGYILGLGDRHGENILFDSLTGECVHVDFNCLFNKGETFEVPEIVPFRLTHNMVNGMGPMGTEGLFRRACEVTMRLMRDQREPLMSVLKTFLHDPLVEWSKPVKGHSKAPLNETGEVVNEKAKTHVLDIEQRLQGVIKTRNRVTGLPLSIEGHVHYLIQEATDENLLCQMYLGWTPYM
Sequence of ATR/ATRIP (Q8WXE1 whole entry, further chain): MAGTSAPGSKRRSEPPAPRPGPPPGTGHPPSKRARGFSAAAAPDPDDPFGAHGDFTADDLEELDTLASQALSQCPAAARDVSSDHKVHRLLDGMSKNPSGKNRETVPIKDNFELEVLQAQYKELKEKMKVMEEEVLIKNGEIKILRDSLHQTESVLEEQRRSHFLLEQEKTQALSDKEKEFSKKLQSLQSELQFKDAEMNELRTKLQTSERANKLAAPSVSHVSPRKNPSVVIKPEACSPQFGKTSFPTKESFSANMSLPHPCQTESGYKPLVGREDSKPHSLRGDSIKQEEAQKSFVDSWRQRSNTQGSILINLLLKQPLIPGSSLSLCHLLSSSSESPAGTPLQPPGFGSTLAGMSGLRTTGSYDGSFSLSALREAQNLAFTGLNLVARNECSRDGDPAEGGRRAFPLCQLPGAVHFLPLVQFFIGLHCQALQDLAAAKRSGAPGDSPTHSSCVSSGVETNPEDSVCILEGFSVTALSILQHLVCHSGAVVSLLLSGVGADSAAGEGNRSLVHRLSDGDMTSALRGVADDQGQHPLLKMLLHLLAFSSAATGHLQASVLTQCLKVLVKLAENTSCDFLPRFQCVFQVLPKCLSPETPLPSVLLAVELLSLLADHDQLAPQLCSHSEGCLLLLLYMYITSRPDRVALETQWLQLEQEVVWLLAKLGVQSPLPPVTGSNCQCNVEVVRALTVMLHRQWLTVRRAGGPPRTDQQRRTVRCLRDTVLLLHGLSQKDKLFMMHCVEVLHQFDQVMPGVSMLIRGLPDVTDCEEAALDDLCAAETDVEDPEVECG

T1 sequence (Q13535 whole entry, the tested form may be a part): as the sequence (Q13535 whole entry) above

Row | IC50 [1] | IC50 [2] | IC50 (ATR/ATRIP) | SMILES
1 | < 10 nM | < 10 nM | < 1 nM | CNc1nc2ccccc2n1-c1nc2c(c(C(C)(C)S(C)(=O)=O)n1)OC[C@@H]1COC[C@@H](C)N21
2 | 10 to 100 nM | 10 to 100 nM | < 1 nM | CNc1cnc2[nH]ccc2c1-c1nc2c(c(C(C)(C)O)n1)OC[C@@H]1COC[C@@H](C)N21
3 | 100 to 1000 nM |  | 10 to 100 nM | CNc1nccn1-c1nc2c(c(C(C)(C)S(C)(=O)=O)n1)OC[C@@H]1COC[C@@H](C)N21
4 |  |  | 10 to 100 nM | C[C@@H]1COC[C@H]2COc3c(nc(N(C)c4ccn[nH]4)nc3C(C)(C)S(C)(=O)=O)N21
5 | 10 to 100 nM | < 10 nM | < 1 nM | CNc1cnc2[nH]ccc2c1-c1nc2c(c(C(C)(C)S(C)(=O)=O)n1)OC[C@@H]1COC[C@@H](C)N21
6 |  | 10 to 100 nM | 1 to 10 nM | CCNc1cnc2[nH]ccc2c1-c1nc2c(c(C(C)(C)S(C)(=O)=O)n1)OC[C@@H]1COC[C@@H](C)N21

— ChEMBL document CHEMBL4251726, “ATR Inhibitors as Potential Treatment for Cancers” (ACS Med Chem Lett, 2018)
